# Measurements as given in patent US20230090884A1, “DEVICE AND METHODS FOR ISOLATING EXTRACELLULAR MATRIX BODIES” (AUFBAU MEDICAL INNOVATIONS LIMITED, priority 2020, published 2023).
# Assay: Dose-response in microfluidic chip device: change in chip pressure (intraocular pressure model) after treatment of bovine vitreous humor
# Settings: 12.5% homogenized BVH in PBS incubated with compound at 37° C. for 1 hour; 7 ul injected; relative change in chip pressure recorded for 50 min; half-maximal response; read-out: EC50 for treatment of bovine vitreous humor (glaucoma model)
# Protocol: The compound bivalirudin TFA was tested in bovine vitreous humor (BVH) in a microfluidic chip device. A solution of 25% homogenized BVH in PBS buffer was prepared and diluted with an equal amount of a solution of the compound, so that the total BVH concentration was 12.5%. The sample was vortexed and incubated at 37° C. for 1 hour. A control of either PBS buffer or PBS with 10% ethanol or DMSO was used and incubated with BVH under the same conditions.
# The test compound-BVH solution was introduced into the reservoir of the microfluidic chip device and flow rate and pressure change were recorded. Various concentrations of the compound were tested for effects on the treatment of bovine vitreous humor. 7 ul of each test solution was injected into the microfluidic chip through a sample injector. Recording of the flow rate and pressure change was continued for 50 additional minutes after the sample injection. The relative change in chip pressure for the entire course of the experiment was obtained.
# The EC50 value was taken as the point on the x-axis at which the logarithmic function of the micromolar concentration of the compound produced half-maximal response. […] The response was calculated by taking the absolute difference between the control and test value for each concentration. […]
row,Substance,EC50
1,bivalirudin TFA,1.2 nM
2,polymyxin B sulfate,4.3 nM
